Measurements as given in PMC5025041 (Journal of chromatography. A, 2015).
Like-named read-outs stand apart in the source and are kept apart here.

Assays:
[1] = subject 8 dosed with O-DVX, with indinavir therapy, 1 hr and 4 hrs
[2] = human, in vivo
[3] = human, in vivo; remark: listed apart in the source
[4] = test system: P-glycoprotein (Pgp); settings: not told; cited from earlier work
[5] = test system: Pgp; settings: in vitro models; cited from earlier work
[6] = test system: CYP3A4; settings: cited from earlier work

## CN(C)CC(c1ccc(O)cc1)C1(O)CCCCC1 (centres unmarked) [O-DVX, O-desmethylvenlafaxine]
[1]
  S/R ratio of peak height in plasma: remains less than one
[2]; 1 h
  S/R ratio of peak height in plasma: 0.83
[2]; 4 h
  S/R ratio of peak height in plasma: 0.98
[3]
  peak height ratio S- to R-enantiomer in plasma: 0.50-15.2
[4]
  substrate of the drug transporter P-glycoprotein (Pgp): substrates

## COc1ccc(C(CN(C)C)C2(O)CCCCC2)cc1 (centres unmarked) [VX, venlafaxine]
[4]
  substrate of the drug transporter P-glycoprotein (Pgp): substrates

## CC(C)(C)NC(=O)[C@@H]1CN(Cc2cccnc2)CCN1C[C@@H](O)C[C@@H](Cc1ccccc1)C(=O)N[C@H]1c2ccccc2C[C@H]1O [indinavir]
[5]
  inhibition of Pgp: potent inhibitor

## CC(=O)N1CCN(c2ccc(OCC3COC(Cn4ccnc4)(c4ccc(Cl)cc4Cl)O3)cc2)CC1 (centres unmarked) [ketoconazole]
[6]
  reduction of N-desmethyl VX formation: 42%
